Source: article PMC10746280, “Bacterial efflux pump modulators prevent bacterial growth in macrophages and under broth conditions that mimic the host environment” (mBio, 2023)

What was measured:
[1] = test system: S. Typhimurium SL1344 (sifB::gfp) in RAW 264.7 macrophages; assay: SAFIRE macrophage assay: intracellular bacterial load (GFP signal within macrophages); format: cell-based, Salmonella enterica serotype Typhimurium; conditions: for IC50: Salmonella enterica, TYPHIMURIUM, RAW264.7, read-out: SAFIRE IC50
How it was run: (§1)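 Compound or DMSO added 2 h after gentamicin-protected infection (MOI ~30, sifB::gfp SL1344) of RAW 264.7 cells and left to 18 h. Fixed cells imaged; intracellular GFP area per macrophage gives bacterial load, while retained adherent MitoTracker Red-stained macrophages define host toxicity.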

RAW 264.7 macrophages = assay: SAFIRE macrophage assay: host toxicity (adherent macrophage count, morphology); format: cell-based
How it was run: as §1

[2] = 5 uM, 'Toxic' given instead of a score
[3] = 25 uM, 'Toxic' given instead of a score
[4] = 5 uM compound, n=1, DMSO solvent control = 98, rifampicin 2 μg/mL = 65
[5] = 25 uM compound, n=1, DMSO solvent control = 98, rifampicin 2 μg/mL = 65
[6] = 5 uM compound, n=1, DMSO solvent control = 100
[7] = 25 uM compound, n=1, DMSO solvent control = 100

Structure (SMILES) | 5 uM Avg Antibacterial Score [1, 2] | 25 uM Avg Antibacterial Score [1, 3] | 5 uM Avg Cell # Score (RAW 264.7 macrophages; 5 uM) | 25 uM Avg Cell # Score (RAW 264.7 macrophages; 25 uM) | IC50 [1] [nM] | 5 uM Avg Antibacterial Score [1, 4] | 25 uM Avg Antibacterial Score [1, 5] | 5 uM Avg Cell # Score (RAW 264.7 macrophages; [6]) | 25 uM Avg Cell # Score (RAW 264.7 macrophages; [7])
NCC1CCN(CC(O)COc2cc(Cl)cc(Cl)c2)C1 (stereo not shown) [CU209] | 41 | 14 | 143 | 94 |  |  |  |  | 
COCCCN(C)C1CCN(CC(O)COc2ccc(Cl)c(Cl)c2)CC1 (stereo not shown) [CU210] | 54 | 8 | 131 | 112 | 6 |  |  |  | 
COCCN1CCN(CC(O)COc2ccc(Cl)c(Cl)c2)CC1 (stereo not shown) [CU211] | 100 | 50 | 120 | 115 |  |  |  |  | 
OC(COc1ccc(Cl)c(Cl)c1)CN1CCN(Cc2cccc3ccccc23)CC1 (stereo not shown) [CU212] | Toxic | Toxic | 19 | 18 |  |  |  |  | 
OC(COc1cc(Cl)cc(Cl)c1)CN1CCN(Cc2cccc3ccccc23)CC1 (stereo not shown) [CU213] | Toxic | Toxic | 41 | 15 |  |  |  |  | 
NC1CCN(CC(O)COc2ccc3ccccc3c2)CC1 (stereo not shown) [CU214] | 28 | Toxic | 103 | 22 |  |  |  |  | 
NC1CCN(CC(O)COc2cccc3ccccc23)CC1 (stereo not shown) [CU215] | 44 | Toxic | 106 | 17 |  |  |  |  | 
N[C@H]1CC[C@@H](NCC(O)COc2cc(Cl)cc(Cl)c2)CC1 (stereo partly shown) [CU216] | 52 | Toxic | 102 | 22 |  |  |  |  | 
N[C@H]1CC[C@H](NCC(O)COc2cc(Cl)cc(Cl)c2)CC1 (stereo partly shown) [CU217] | 65 | 16 | 106 | 96 |  |  |  |  | 
N[C@H]1CC[C@@H](N2CC(COc3cc(Cl)cc(Cl)c3)OC2=O)CC1 (stereo partly shown) [CU218] | 83 | 15 | 163 | 131 |  |  |  |  | 
N[C@H]1CC[C@H](N2CC(COc3cc(Cl)cc(Cl)c3)OC2=O)CC1 (stereo partly shown) [CU219] | 93 | 22 | 137 | 123 |  |  |  |  | 
CN1CCN(CC(O)COc2ccc(Cl)c(Cl)c2)CC1=O (stereo not shown) [CU220] | 104 | 105 | 116 | 105 |  |  |  |  | 
CN(C)CC1COCCN1CC(O)COc1ccc(Cl)c(Cl)c1 (stereo not shown) [CU221] | 106 | 84 | 104 | 106 |  |  |  |  | 
OC(COc1ccc(Cl)c(Cl)c1)CN1C2CCC1COC2 (stereo not shown) [CU222] | 101 | 72 | 108 | 103 |  |  |  |  | 
OC(COc1ccc(Cl)c(Cl)c1)CN1CC2CC(C1)O2 (stereo not shown) [CU223] | 104 | 103 | 106 | 100 |  |  |  |  | 
OC(COc1ccc(Cl)c(Cl)c1)CN1CC2CCC1CO2 (stereo not shown) [CU224] | 100 | 69 | 117 | 95 |  |  |  |  | 
OC(COc1ccc(Cl)c(Cl)c1)CN1CC2CC1CO2 (stereo not shown) [CU225] | 98 | 73 | 114 | 101 |  |  |  |  | 
OC(COc1ccc(Cl)c(Cl)c1)CN1CC2CCC(C1)O2 (stereo not shown) [CU226] | 102 | 108 | 108 | 74 |  |  |  |  | 
OC(COc1ccc(Cl)c(Cl)c1)CN1CCC2(CCO2)C1 (stereo not shown) [CU228] | 98 | 58 | 111 | 102 |  |  |  |  | 
OC(COc1ccc(Cl)c(Cl)c1)CN1CCC2(CCO2)CC1 (stereo not shown) [CU229] | 101 | 83 | 147 | 141 |  |  |  |  | 
NC1CCCN(CC(O)COc2ccc(Cl)c(Cl)c2)CC1 (stereo not shown) [CU230] | 34 | Toxic | 134 | 19 |  |  |  |  | 
NC1CCCN(CC(O)COc2cc(Cl)cc(Cl)c2)CC1 (stereo not shown) [CU231] |  |  |  |  |  | 22 | Toxic | 112 | 19
NC1CCN(CC(O)COc2ccccc2C(F)(F)F)CC1 (stereo not shown) [CU233] |  |  |  |  |  | 47 | 34 | 128 | 104

Structure (SMILES) | 5 uM Avg Antibacterial Score [1, 2] | 25 uM Avg Antibacterial Score [1, 3] | 5 uM Avg Cell # Score (RAW 264.7 macrophages; 5 uM) | 25 uM Avg Cell # Score (RAW 264.7 macrophages; 25 uM) | IC50 [1] [nM] | 5 uM Avg Antibacterial Score [1, 4] | 25 uM Avg Antibacterial Score [1, 5] | 5 uM Avg Cell # Score (RAW 264.7 macrophages; [6]) | 25 uM Avg Cell # Score (RAW 264.7 macrophages; [7])
OC(COc1cc(Cl)cc(Cl)c1)CN1CCC(n2ccnc2)CC1 (stereo not shown) [CU234] |  |  |  |  |  | 40 | 12 | 134 | 108
CC1(N)CCN(CC(O)COc2ccc(Cl)c(Cl)c2)CC1 (stereo not shown) [CU235] |  |  |  |  |  | 20 | 14 | 125 | 84
OC(CN[C@H]1[C@@H]2CNC[C@@H]21)COc1ccc(Cl)c(Cl)c1 (stereo partly shown) [CU236] |  |  |  |  |  | 53 | 18 | 121 | 99
N[C@@H]1CCN(C[C@H](O)COc2ccc(Cl)c(Cl)c2)C1 [CU237] |  |  |  |  | 8.2 | 34 | 11 | 125 | 107
N[C@H]1CCN(C[C@H](O)COc2ccc(Cl)c(Cl)c2)C1 [CU238] |  |  |  |  |  | 34 | 12 | 126 | 102
N[C@@H]1CCN(C[C@@H](O)COc2ccc(Cl)c(Cl)c2)C1 [CU239] |  |  |  |  | 13.5 | 25 | 8 | 129 | 104
N[C@H]1CCN(C[C@@H](O)COc2ccc(Cl)c(Cl)c2)C1 [CU240] |  |  |  |  | 9.1 | 29 | 10 | 118 | 105
NC1CCN(CC(COc2ccc(Cl)c(Cl)c2)OCc2ccccc2)CC1 (stereo not shown) [CU241] |  |  |  |  |  | 30 | Toxic | 110 | 6
COC(COc1ccc(Cl)c(Cl)c1)CN1CCC(N)CC1 (stereo not shown) [CU242] |  |  |  |  |  | 28 | 9 | 123 | 109
CC1(N)CCN(CC(O)COc2cc(Cl)cc(Cl)c2)CC1 (stereo not shown) [CU243] |  |  |  |  |  | 21 | 12 | 129 | 90
N[C@H]1CC[C@@H](NCC(O)COc2ccc(Cl)c(Cl)c2)CC1 (stereo partly shown) [CU245] |  |  |  |  |  | 66 | 16 | 122 | 103
N[C@H]1CC[C@H](NCC(O)COc2ccc(Cl)c(Cl)c2)CC1 (stereo partly shown) [CU246] |  |  |  |  |  | 72 | 19 | 117 | 106
OC(COc1cc(Cl)cc(Cl)c1)CN1CCCCC1 (stereo not shown) [CU247] |  |  |  |  |  | 93 | 50 | 118 | 111
OC(COc1cc(Cl)cc(Cl)c1)CN1CCCC1 (stereo not shown) [CU248] |  |  |  |  |  | 93 | 48 | 115 | 108
NCCC1CCN(CC(O)COc2ccc(Cl)c(Cl)c2)CC1 (stereo not shown) [CU249] |  |  |  |  |  | 17 | Toxic | 123 | 56
NCCC1CCN(CC(O)COc2cc(Cl)cc(Cl)c2)CC1 (stereo not shown) [CU250] |  |  |  |  |  | 20 | Toxic | 115 | 26
NCCC1CCN(CC(O)COc2ccc(Cl)c(Cl)c2)C1 (stereo not shown) [CU251] |  |  |  |  |  | 100 | 103 | 108 | 101
NCCC1CCN(CC(O)COc2cc(Cl)cc(Cl)c2)C1 (stereo not shown) [CU252] |  |  |  |  |  | 98 | 77 | 114 | 117
O[C@@H](COc1ccc(Cl)c(Cl)c1)CN1CCCCC1 [CU253] |  |  |  |  |  | 96 | 57 | 116 | 120
O[C@@H](COc1ccc(Cl)c(Cl)c1)CN1CCCC1 [CU254] |  |  |  |  |  | 89 | 51 | 119 | 125
CC(C)(C)c1nc(NC(=N)N)sc1Br [EPM30] | 92 | Toxic | 97 | 66 |  |  |  |  | 
Cc1ccc(Sc2cccc3nc(N)nc(N)c23)cc1 [EPM43] | 81 | Toxic | 93 | 67 |  |  |  |  | 
